Assay results as given in paper PMC9151520 (Archives of Toxicology, 2022).
pEC50: −log10 of the molar value. Values joined by “and” are separate entries in the source; they are usually repeats but may differ in a detail not shown here. Identical values can stand only once. Counter-ions that a name gives are not always drawn. Like-named read-outs stand apart in the source and are kept apart here.

Assays:
[1] = test system: p53RE-bla HCT-116 cells
[2] = test system: p53 signaling (p53RE-bla HCT-116 cells)
[3] = test system: p53 signaling (p53RE-bla HCT-116 cells); assay: cells; assay type: cell-based
[4] = test system: p53 signaling (p53RE-bla HCT-116 cells); settings: for pEC50: read-out: p53 activation EC50, HLM
[5] = read-out: EC50, p53 activation, primary screening
[6] = read-out: p53 activation EC50, cherry pick confirmation
[7] = read-out: p53 activation EC50, primary screening
[8] = Homo sapiens, HCT-116, read-out: Efficacy, p53 activation, cherry pick confirmation

Nc1cnn([C@@H]2O[C@H](CO)[C@@H](O)[C@H]2O)c(=O)n1 [6-Azacytidine]
EC50, viability, cherry pick confirmation [1]: inactive
EC50, viability, primary screening [1]: inactive
Efficacy, viability, cherry pick confirmation [1]: inactive
Efficacy, viability, primary screening [1]: inactive
EC50, p53 activation, cherry pick confirmation [2]: inactive
EC50, p53 activation, primary screening [2]: inactive
Efficacy, p53 activation, cherry pick confirmation [2]: inactive
Efficacy, p53 activation, primary screening [2]: inactive
Efficacy, p53 activation, cherry pick confirmation [3]: 68.68
Efficacy, p53 activation, primary screening [3]: 56.623
pEC50 ([3]; read-out: EC50, p53 activation, cherry pick confirmation): 5.96
pEC50 [3, 5]: 6.09
EC50, p53 activation, cherry pick confirmation [4]: inactive
EC50, p53 activation, primary screening [4]: inactive
Efficacy, p53 activation, cherry pick confirmation [4]: inactive
Efficacy, p53 activation, primary screening [4]: inactive

Cl.Nc1ccc2cc3ccc(N)cc3nc2c1 [Proflavin hydrochloride]
Viability EC50, cherry pick confirmation [1]: inactive
Viability EC50, primary screening [1]: inactive
Viability efficacy, cherry pick confirmation [1]: inactive
Viability efficacy, primary screening [1]: inactive
p53 activation EC50, cherry pick confirmation [2]: inactive
p53 activation EC50, primary screening [2]: inactive
p53 activation efficacy, cherry pick confirmation [2]: inactive
p53 activation efficacy, primary screening [2]: inactive
p53 activation efficacy, cherry pick confirmation [3]: 356.887
p53 activation efficacy, primary screening [3]: 211.641
pEC50 [3, 6]: 5.44
pEC50 [3, 7]: 5.54
p53 activation EC50, cherry pick confirmation [4]: inactive
p53 activation EC50, primary screening [4]: inactive
p53 activation efficacy, cherry pick confirmation [4]: inactive
p53 activation efficacy, primary screening [4]: inactive

O=c1cc(-c2ccc(O)cc2)oc2cc(O)cc(O)c12 [Apigenin]
Viability EC50, cherry pick confirmation [1]: inactive
Viability EC50, primary screening [1]: inactive
Viability efficacy, cherry pick confirmation [1]: inactive
Viability efficacy, primary screening [1]: inactive
p53 activation EC50, cherry pick confirmation [2]: inactive
p53 activation EC50, primary screening [2]: inactive
p53 activation efficacy, cherry pick confirmation [2]: inactive
p53 activation efficacy, primary screening [2]: inactive
pEC50 ([3]; Homo sapiens, HCT-116, read-out: p53 activation EC50, cherry pick confirmation): 4.33
pEC50 ([3]; Homo sapiens, HCT-116, read-out: p53 activation EC50, primary screening): 4.74
Emax ([3]; Homo sapiens, HCT-116, read-out: p53 activation efficacy, cherry pick confirmation): 32.2%
Emax ([3]; Homo sapiens, HCT-116, read-out: p53 activation efficacy, primary screening): 51.2%
p53 activation EC50, cherry pick confirmation [4]: inactive
p53 activation EC50, primary screening [4]: inactive
p53 activation efficacy, cherry pick confirmation [4]: inactive
p53 activation efficacy, primary screening [4]: inactive

CC(C)c1cccc(C(C)C)c1N1C(=O)c2ccc(O)cc2C1=O
Viability EC50, cherry pick confirmation [1]: inactive
Viability EC50, primary screening [1]: inactive
Viability efficacy, cherry pick confirmation [1]: inactive
Viability efficacy, primary screening [1]: inactive
p53 activation EC50, cherry pick confirmation [2]: inactive
p53 activation EC50, primary screening [2]: inactive
p53 activation efficacy, cherry pick confirmation [2]: inactive
p53 activation efficacy, primary screening [2]: inactive
p53 activation efficacy, cherry pick confirmation [3]: 44.7367
p53 activation efficacy, primary screening [3]: 87.6647
pEC50 [3, 6]: 5.51
pEC50 [3, 7]: 5.41
p53 activation EC50, cherry pick confirmation [4]: inactive
p53 activation EC50, primary screening [4]: inactive
p53 activation efficacy, cherry pick confirmation [4]: inactive
p53 activation efficacy, primary screening [4]: inactive

CNC(=O)Oc1cccc2c1OC(C)(C)C2 [Carbofuran]
Viability EC50 [1]: inactive
Viability efficacy [1]: inactive
p53 activation EC50 [2]: inactive
p53 activation EC50 [3]: inactive
p53 activation efficacy [3]: inactive
p53 activation EC50 [4]: inactive

CCOC(=O)c1c(N)sc2c1CCN(Cc1ccccc1)C2 [Tinoridine]
Viability EC50 [1]: inactive
Viability efficacy [1]: inactive
p53 activation EC50 [2]: inactive
p53 activation EC50 [3]: inactive
p53 activation efficacy [3]: inactive
p53 activation EC50 [4]: inactive

Oc1c(Cl)cc(Cl)cc1Sc1cc(Cl)cc(Cl)c1O [Sodium bithionolate]
EC50, viability, cherry pick confirmation [1]: inactive
EC50, viability, primary screening [1]: inactive
pEC50 ([1]; read-out: EC50, viability, cherry pick confirmation): 4.33 and 4.41
pEC50 ([1]; read-out: EC50, viability, primary screening): 4.36 and 4.34
EC50, p53 activation, cherry pick confirmation [2]: inactive
EC50, p53 activation, primary screening [2]: inactive
Efficacy, p53 activation, cherry pick confirmation [2]: inactive
Efficacy, p53 activation, primary screening [2]: inactive
EC50, p53 activation, cherry pick confirmation [3]: inactive
Efficacy, p53 activation, cherry pick confirmation [3]: inactive
Efficacy, p53 activation, primary screening [3]: 34.4493
pEC50 [3, 5]: 4.76
EC50, p53 activation, cherry pick confirmation [4]: inactive
EC50, p53 activation, primary screening [4]: inactive
Efficacy, p53 activation, cherry pick confirmation [4]: inactive
Efficacy, p53 activation, primary screening [4]: inactive

O=C1CCCc2c1cc1ccc3cccc4ccc2c1c34 [9,10-Dihydrobenzo[a]pyren-7(8H)-one]
Viability EC50, HLM [1]: inactive
Viability EC50, No MS [1]: inactive
Viability EC50, RLM [1]: inactive
Viability Efficacy, HLM [1]: inactive
Viability Efficacy, No MS [1]: inactive
Viability Efficacy, RLM [1]: inactive
p53 activation EC50, RLM [2]: inactive
p53 activation Efficacy, RLM [2]: inactive
p53 activation EC50, HLM [4]: inactive
pEC50 [4]: 5.03

Phenylmercuric acetate
p53 activation EC50, RLM [2]: inactive
p53 activation Efficacy, RLM [2]: inactive
p53 activation Efficacy, No MS [3]: 66.4107% and 63.4503%
p53 activation EC50, HLM [4]: inactive
pEC50 [4]: 4.90

CC(C)c1ccc2cc(C(C)C)ccc2c1 [2,6-Diisopropylnaphthalene]
Efficacy, p53 activation, cherry pick confirmation [2]: inactive
Efficacy, p53 activation, primary screening [2]: inactive
Efficacy, p53 activation, cherry pick confirmation [3]: inactive

O=C(c1ccc(O)c(O)c1)c1ccc(O)cc1O [2,3',4,4'-Tetrahydroxybenzophenone]
p53 activation efficacy, cherry pick confirmation [3]: inactive

Oc1c(Cl)cc(Cl)cc1Sc1cc(Cl)cc(Cl)c1O [Bithionol]
EC50, p53 activation, cherry pick confirmation [2]: inactive
EC50, p53 activation, primary screening [2]: inactive
Efficacy, p53 activation, cherry pick confirmation [2]: inactive
Efficacy, p53 activation, primary screening [2]: inactive
Efficacy, p53 activation, primary screening [3]: 93.9867
pEC50 ([3]; Homo sapiens, HCT-116, read-out: EC50, p53 activation, cherry pick confirmation): 4.69
Emax [3, 8]: 74%
pEC50 [3, 5]: 4.40
EC50, p53 activation, cherry pick confirmation [4]: inactive
EC50, p53 activation, primary screening [4]: inactive
Efficacy, p53 activation, cherry pick confirmation [4]: inactive
Efficacy, p53 activation, primary screening [4]: inactive

CSc1ccc2c(c1)N(CCC1CCCCN1C)c1ccccc1S2 (stereo not shown) [Thioridazine hydrochloride]
EC50, p53 activation, cherry pick confirmation [2]: inactive
EC50, p53 activation, primary screening [2]: inactive
Efficacy, p53 activation, cherry pick confirmation [2]: inactive
Efficacy, p53 activation, primary screening [2]: inactive
Emax [3, 8]: 51.8%
Emax ([3]; Homo sapiens, HCT-116, read-out: Efficacy, p53 activation, primary screening): 64.5%
EC50, p53 activation, cherry pick confirmation [4]: inactive
EC50, p53 activation, primary screening [4]: inactive
Efficacy, p53 activation, cherry pick confirmation [4]: inactive
Efficacy, p53 activation, primary screening [4]: inactive

Irinotecan hydrochloride
Efficacy, p53 activation, cherry pick confirmation [3]: 86.836
Efficacy, p53 activation, primary screening [3]: 70.7017
pEC50 [3, 5]: 5.38
